Assays:
Experiment in all cases: Minimum Inhibitory Concentration (MIC) according to DIN 58 940
Format in all cases: cell-based
Candida albicans = test system: Candida albicans
Source text: (§1) MIC: Determination of Minimum Inhibitory Concentration (MIC) according to DIN 58 940

Propionibacterium acnes = test system: Propionibacterium acnes
Source text: as §1

Malassezia furfur = settings: Malasse zia furfur
Source text: as §1

Staphylococcus epidermis = test system: Staphylococcus epidermis
Source text: as §1

Brevibacterium epidermis = test system: Brevibacterium epidermis
Source text: as §1

Escherichia coli = test system: Escherichia coli
Source text: as §1

Aspergillus brasiliensis = settings: Asperigillus brasiliensis
Source text: as §1

Staphylococcus aureus = test system: Staphylococcus aureus
Source text: as §1

Pseudomonas aeruginosa = test system: Pseudomonas aeruginosa
Source text: as §1

SMILES | MIC (Candida albicans) | MIC (Propionibacterium acnes) | MIC (Malassezia furfur) | MIC (Staphylococcus epidermis) [ppm] | MIC (Brevibacterium epidermis) | MIC (Escherichia coli) | MIC (Aspergillus brasiliensis) | MIC (Staphylococcus aureus) | MIC (Pseudomonas aeruginosa)
CCCCCCCCOC1COC2C(OCCCCCCCC)COC12 (stereo not drawn) [Comperative compound (1), reference compound] | >10,000 ppm | >10,000 ppm | >10,000 ppm | <200 | >10,000 ppm | >10,000 ppm | >10,000 ppm | >10,000 ppm | >10,000 ppm
CCCCCCCCCCC(O)COC1COC2C(O)COC12 (stereo not drawn) [Compound (4)] | ≤20 ppm | <100 ppm | ≤20 ppm | ≤20 | ≤20 ppm | <2,000 ppm | <200 ppm | <100 ppm | <1,000 ppm
CCCCCCCCC(O)COC1COC2C(O)COC12 (stereo not drawn) [Compound (3)] | ≤100 ppm | <50 ppm | ≤2500 ppm | ≤20 | ≤200 ppm | <2,000 ppm | <1000 ppm | <500 ppm | <1,000 ppm
CCCCCCCCCCCCOC1COC2C(O)COC12 (stereo not drawn) [Compound (2)] | ≤20 ppm | ≤20 ppm | 2,500 ppm | ≤20 | ≤20 ppm | >10,000 ppm | ≤20 ppm | <50 ppm | >10,000 ppm
CCCCCCCCOC1COC2C(O)COC12 (stereo not drawn) [Compound (1)] | <50 ppm | <500 ppm | <1,000 ppm | <100 | <500 ppm | <1,000 ppm | <200 ppm | <500 ppm | <1,000 ppm
